Laboratory results published in paper PMC8373216, “Development and Preclinical Evaluation of New Inhaled Lipoglycopeptides for the Treatment of Persistent Pulmonary Methicillin-Resistant Staphylococcus aureus Infections” (Antimicrobial Agents and Chemotherapy, 2021).
Where two headings read alike, the source gives them in different places.

Columns and labels:
Streptococcus anginosus = assay: Expanded panel broth microdilution MIC/MBC; assay type: cell-based; details: for MIC: Streptococcus anginosus
Staphylococcus hominis = assay: Expanded panel broth microdilution MIC; assay type: cell-based
Streptococcus mitis = assay: Expanded panel broth microdilution MIC/MBC; assay type: cell-based; details: for MIC: Streptococcus mitis
Clostridium. perfringens = assay: microbe, parasite or virus in culture; assay type: cell-based
[1] = test system: Streptococcus constellatus; assay: Expanded panel broth microdilution MIC; assay type: cell-based
S. aureus = assay: Expanded panel broth microdilution MIC/MBC; details: for MIC: Staphylococcus aureus
Streptococcus pneumoniae = assay: Expanded panel broth microdilution MIC/MBC; assay type: cell-based
[2] = test system: Staphylococcus epidermidis; assay: Expanded panel broth microdilution MIC/MBC; assay type: cell-based; details: for MIC: Staphylococcus epidermidis
Clostridioides difficile = assay: Expanded panel broth microdilution MIC; assay type: cell-based
[3] = test system: MRSA ATCC BAA 1556 (USA300); assay: In-house broth microdilution MIC screening; assay type: cell-based, Staphylococcus aureus; details: Staphylococcus aureus, read-out: MIC Value, MRSA ATCC BAA 1556
Streptococcus oralis = assay: Expanded panel broth microdilution MIC; assay type: cell-based
[4] = test system: Streptococcus dysgalactiae; assay: Expanded panel broth microdilution MIC/MBC; assay type: cell-based; details: for MIC: Streptococcus dysgalactiae
[5] = test system: MRSA (ATCC BAA 1556; USA300); assay: Acute pulmonary MRSA infection in neutropenic rats, nebulized nose-only inhalation; assay type: in vivo, Staphylococcus aureus; details: inhaled at 24 and 32 h postinfection, lungs at 48 h, 49.8 mg/kg delivered
Protocol: Rats were rendered neutropenic with intraperitoneal (i.p.) cyclophosphamide on day −4 (150 mg/kg) and day −1 (100 mg/kg) relative to the challenge. On day 0 at 0 h, rats were challenged with MRSA via intranasal instillation at a target titer of 8.0 to 8.3 log10 CFU. At 24 and 32 h postchallenge, rats were loaded into a 12-port inhalation dosing tower, where they received nebulized drug or vehicle control treatments by nose-only inhalation. Animals were euthanized at 48 h postinfection for enumeration of lung MRSA titer. MRSA lung titer of test article treatments versus control is plotted for three separate experiments. […] Statistics are based on the Kolmogorov-Smirnov test for drug treatment versus control (RV94, P = 0.01). LOD = 2.1 log10 CFU/lungset.
Male Sprague Dawley rats (Envigo, Indianapolis, IN) weighing between 225 and 250 g were used in these studies. Rats were housed and acclimated to the study facility as described in the PK methods section. Rats were rendered neutropenic through a series of intraperitoneal cyclophosphamide (Sigma-Aldrich) injections on day −4 (150 mg/kg) and day −1 (100 mg/kg) relative to the challenge. On day 0 at 0 h, rats were challenged with MRSA ATCC BAA 1556 via intranasal instillation at a target titer of 8.0 to 8.3 log10 CFU using optical density and back-counting inoculum CFU. To prepare the inoculum, a frozen aliquot of the organism stored at −80°C was thawed, transferred into TSB, and incubated at 37°C while shaking for 16 h. Cultures were then centrifuged at 2,000 × g for 5 min, and the resulting pellet was resuspended in PBS and equilibrated. For the challenge procedure, rats were first anesthetized through use of 2 to 5% isoflurane in 100% oxygen, then restrained with a scruff grip and a total of 200 μl of inoculum was quickly introduced to one nare. The rat was held in a vertical position until the challenge was fully inhaled. Rats were monitored following challenge to ensure that normal respiration was achieved and then returned to their cage. […] At necropsy, whole lungs were aseptically removed and lung weights were recorded. […]

MSSA ATCC 29213 = assay: In-house broth microdilution MIC screening; assay type: cell-based; details: Staphylococcus aureus, read-out: MIC Value, MSSA ATCC 29213

CN[C@H](CC(C)C)C(=O)N[C@H]1C(=O)N[C@@H](CC(N)=O)C(=O)N[C@H]2C(=O)N[C@H]3C(=O)N[C@H](C(=O)N[C@H](C(=O)O)c4cc(O)cc(O)c4-c4cc3ccc4O)[C@H](O)c3ccc(c(Cl)c3)Oc3cc2cc(c3O[C@@H]2O[C@H](CO)[C@@H](O)[C@H](O)[C@H]2O[C@H]2C[C@](C)(N)[C@H](O)[C@H](C)O2)Oc2ccc(cc2Cl)[C@H]1O [Vancomycin, vancomycin]
0.6 µg/mL: MIC (Streptococcus pneumoniae; Streptococcus pneumoniae, read-out: MIC (median))
>64 µg/mL: MIC (median) (S. aureus; S. aureus VRSA, 12 isolates (JMI Laboratories))
4 µg/mL: MIC (S. aureus; NRS1 / VISA, S. aureus NRS1, VISA, Mu50) | MIC (S. aureus; NRS4 / VISA, S. aureus NRS4, VISA) | MIC (S. aureus; NRS22 / VISA, S. aureus NRS22, VISA) | MIC (S. aureus; VISA, read-out: MIC (median), S. aureus VISA, 5 isolates)
1 µg/mL: MIC (S. aureus; ATCC13709 / MSSA, S. aureus ATCC 13709, MSSA) | MIC (S. aureus; ATCC29213 / MSSA, S. aureus ATCC 29213, MSSA) | MIC (S. aureus; ATCC43300 / MRSA, S. aureus ATCC 43300, MRSA) | MIC (S. aureus; NRS2, S. aureus NRS2, hVISA;Mu3) | MIC (S. aureus; NRS52 / VISA, S. aureus NRS52, VISA) | MIC (Streptococcus pneumoniae; Streptococcus pneumoniae, ATCC49619) | MIC ([2]; MRSE, S. epidermidis MMX 762, MRSE) | MIC ([2]; MRSE, S. epidermidis MMX 5145, MRSE) | MIC ([2]; MRSE, read-out: MIC (median), S. epidermidis MRSE, 2 isolates) | MIC (Clostridioides difficile; ATCCBAA1870, C. difficile ATCC BAA-1870, NAP1;ribo 027) | MIC (Clostridioides difficile; C. difficile NAP1;ribo 027, 1 isolate) | MIC [3] | MIC (MSSA ATCC 29213)
4: MIC:MBC (S. aureus; S. aureus VISA, MBC median of n = 2)
0.75 µg/mL: MIC (S. aureus; MSSA, read-out: MIC (median), S. aureus MSSA, 4 isolates)
8: MIC:MBC (Streptococcus pneumoniae; S. pneumoniae PISP, MBC on one organism)
2 µg/mL: MIC (S. aureus; NRS13 / VISA, S. aureus NRS13, VISA) | MIC (S. aureus; NRS23, S. aureus NRS23, hVISA)
0.25 µg/mL: MIC (Streptococcus mitis) | MIC (Streptococcus mitis; ATCC49456) | MIC (Streptococcus mitis; read-out: MIC (median)) | MIC (Clostridium. perfringens) | MIC (Clostridium. perfringens; ATCC13124, read-out: MIC) | MIC ([1]; S. constellatus AGS, 1 isolate) | MIC ([1]; Streptococcus constellatus) | MIC (Streptococcus pneumoniae; S. pneumoniae PRSP, 1 isolate) | MIC (Streptococcus pneumoniae; Streptococcus pneumoniae, PRSP) | MIC (Clostridioides difficile; C. difficile ATTC 700057, toxAB-) | MIC (Clostridioides difficile; C. difficile toxAB-, 1 isolate) | MIC ([4]; S. dysgalactiae MMX 5121) | MIC ([4]; S. dysgalactiae MMX 5123) | MIC ([4]; S. dysgalactiae MMX 5124) | MIC ([4]; read-out: MIC (median), S. dysgalactiae, 3 isolates)
1.5 µg/mL: MIC (S. aureus; read-out: MIC (median), S. aureus hVISA, 2 isolates)
>8: MIC:MBC (Streptococcus anginosus; S. anginosus AGS) | MIC:MBC ([4]; S. dysgalactiae, MBC on one organism)
> 64 µg/mL: MIC (S. aureus; VRSA, read-out: MIC (median), S. aureus VRSA, 12 isolates (JMI Laboratories))
0.5 µg/mL: MIC (Streptococcus anginosus) | MIC (Streptococcus anginosus; ATCC33397) | MIC (Staphylococcus hominis) | MIC (Staphylococcus hominis; ATCC27844) | MIC (S. aureus; ATCCBAA1556|MRSA|USA300, S. aureus ATCC BAA-1556, MRSA, USA300 (expanded panel)) | MIC (S. aureus; ATCCBAA1756|MRSA|NRS384|USA300, S. aureus NRS 384, ATCC BAA-1756, MRSA, USA300) | MIC (S. aureus; MRSA / NRS123 / USA400, S. aureus NRS123, MRSA, USA400) | MIC (S. aureus; MRSA / NRS725 / USA300, S. aureus NRS725, MRSA, USA300) | MIC (S. aureus; MRSA / USA300, S. aureus MMX 3982, MRSA, USA300) | MIC (S. aureus; MRSA, S. aureus MMX 7899, MRSA) | MIC (S. aureus; MRSA, S. aureus MMX 7900, MRSA) | MIC (S. aureus; MRSA, S. aureus MMX 7901, MRSA) | MIC (S. aureus; MRSA, S. aureus MMX 7902, MRSA) | MIC (S. aureus; MRSA, S. aureus MMX 7903, MRSA) | MIC (S. aureus; MRSA, read-out: MIC (median), S. aureus MRSA, 12 isolates) | MIC (S. aureus; MSSA, S. aureus MMX 7907, MSSA) | MIC (S. aureus; MSSA, S. aureus MMX 7908, MSSA) | MIC ([2]; ATCC49134, S. epidermidis ATCC 49134, MSSE) | MIC ([2]; S. epidermidis MSSE, 1 isolate) | MIC (Clostridioides difficile; ATCCBAA1805, C. difficile ATCC BAA-1805, ribo 027) | MIC (Clostridioides difficile; C. difficile ribo 027, 1 isolate) | MIC (Streptococcus oralis; S. oralis MGS, 1 isolate) | MIC (Streptococcus oralis; Streptococcus oralis)
0.1 log10 CFU: Average increase in lung MRSA titer versus inhaled vehicle control [5]
0.12 µg/mL: MIC (Streptococcus pneumoniae; Streptococcus pneumoniae)
1: MIC:MBC (Streptococcus mitis; S. mitis MGS, MBC on one organism) | MIC:MBC (S. aureus; S. aureus MRSA, MBC median of n = 5) | MIC:MBC (S. aureus; S. aureus MSSA, MBC on one organism) | MIC:MBC (S. aureus; S. aureus hVISA, MBC on one organism) | MIC:MBC ([2]; S. epidermidis MRSE, MBC on one organism)
